In US6887691B2, “DNA coding for protein which confers on bacterium Escherichia coli resistance to L-homoserine, and method for producing L-amino acids” (priority 1998, dated 2005):

Tests used:
Assay in all cases: MIC of amino acids and amino acid analogues on M9 agar test plates
Type in all cases: cell-based
[1] = system: E. coli strain N99 rhtB::cat; conditions: Escherichia coli
Experimental: To inactivate the chromosomal rhtB gene the plasmid pNPZ46 was constructed (FIG. 1) on the basis of pUK21 vector. It harbors a DNA fragment from 86 min of E. coli chromosome, with the rhtB gene and 5′-flanking and 3′-flanking regions thereof. Then the ClaI-Eco47III fragment of the pNPZ46 plasmid rhtB gene was substituted for AsuII-BsrBI fragment containing cat (Cm^R) gene of pACYC184 plasmid (Chang and Cohen, J. Bacteriol., 134, 1141-1156, 1978) giving the pNPZ47 plasmid (FIG. 1). To introduce the obtained insertionally inactivated rhtB gene into the chromosome of the E. coli strain N99 (the streptomycin-resistant derivative of the known strain W3350 (Campbell, Virology, 14, 22-33, 1961)), the method of Parker and Marinus was used (Parker, B. and Marinus, M. G., Gene, 73, 531-535, 1988).
(§1) Then the susceptibility of the thus obtained E. coli strain N99 rhtB::cat, of the initial strain N99 (rhtB^+) and of its derivative transformed with pRhtB plasmid, N99/pRhtB, to some amino acids and amino acid analogues was tested. overnight cultures of the strains grown in M9 minimal medium at 37° C. with a rotary shaker (10^9 cfu/ml) were diluted 1:100 and grown for 5 hours under the same conditions. Then the log phase cultures thus obtained were diluted and about 10^4 of alive cells were applied to well-dried test plates with M9 agar containing doubling increments of amino acids or analogues. The minimum inhibitory concentration (MIC) of these compounds were examined after 40-46 h cultivation.

E. coli strain N99/pRhtB = conditions: Escherichia coli
Experimental: as §1

[2] = system: E. coli strain N99 (rhtB+); conditions: Escherichia coli, initial strain, doubling increments, examined after 40-46 h cultivation
Experimental: as §1

## CCCC(N)(O)C(=O)O (stereo not drawn) [AHVA, α-amino-α-hydroxyvaleric-acid, reference compound]
[1]
  MIC: 25 mg/L
E. coli strain N99/pRhtB
  MIC: 2000 mg/L
[2]
  MIC: 50 mg/L

## CC(C)[C@H](N)C(=O)O [L-valine]
[1]
  MIC: 0.5 mg/L
E. coli strain N99/pRhtB
  MIC: 1 mg/L
[2]
  MIC: 0.5 mg/L

## CN(C)CC(N)C(=O)O (racemic) [4-aza-DL-leucine, reference compound]
[1]
  MIC: 40 mg/L
E. coli strain N99/pRhtB
  MIC: 100 mg/L
[2]
  MIC: 40 mg/L

## N[C@@H](CO)C(=O)O [L-serine]
[1]
  MIC: 5000 mg/L
E. coli strain N99/pRhtB
  MIC: 10000 mg/L
[2]
  MIC: 5000 mg/L

## N[C@@H](CCO)C(=O)O [L-homoserine]
[1]
  MIC: 125 mg/L
E. coli strain N99/pRhtB
  MIC: 30000 mg/L
[2]
  MIC: 250 mg/L

## NCCSC[C@H](N)C(=O)O [AEC, S-(2-aminoethyl)-L-cysteine, reference compound]
[1]
  MIC: 10 mg/L
E. coli strain N99/pRhtB
  MIC: 25 mg/L
[2]
  MIC: 10 mg/L

## C[C@@H](O)[C@H](N)C(=O)O [L-threonine]
[1]
  MIC: 30000 mg/L
E. coli strain N99/pRhtB
  MIC: 50000 mg/L
[2]
  MIC: 30000 mg/L
